Experimental data: patent publication US7582786B2, “Synthetic catalytic free radical scavengers useful as antioxidants for prevention and therapy of disease” (Eukarion Inc., priority 1996, dated 2009)

Tests used:
[1] = test system: Human dermal fibroblasts (HF cells); assay: Cell protection assay, tert-butylhydroperoxide (t-BHP) toxicity, XTT; type: cell-based
Method: Human dermal fibroblasts (HF cells) were obtained from the American type tissue Culture Collection at passage 1 and cultured and propagated in a medium (HF medium) consisting of Dulbecco's Modified Eagle's Medium with 4.5 g/l D-glucose, 10% calf serum 4 mM glutamine, 50 units/ml penicillin, and 50 μg/ml streptomycin in a 37° C. humidified incubator equilibrated with 5% CO2. Cells were used at passages 5 or 6 for experiments. For cell protection assays, HF cells were seeded at a density of about 15,000 cells per cm2 onto 96-well culture plates and allowed to grow to confluence. To assess protection tert-butylhydroperoxide (t-BHP) toxicity, confluent cell layers were first treated with the indicated concentrations of test compounds dissolved in HF medium for 18 hr. The medium was then replaced with fresh medium containing test compounds and 0.5 mM tert-butylhydroperoxide (t-BHP) and cells were incubated for another 18 hr. The medium was then removed and replaced with fresh HF medium (100 μl per well) without test compounds or t-BHP. Fifty μl of XTT reagent (Boeringer Mannheim, Inc.), prepared as described by the manufacturer, was then added to each well and the plates returned to the incubator. After 2 hr., the absorbance at 490 nm was measured in a BioRad (Richmond, Calif.) Model 3550 plate-reader, using a reference wavelength of 655 nm. Control cells that had not been exposed to test compounds or toxic agents were included among the samples treated with XTT reagent. Absorbance measurements for blank wells, containing HF medium and XTT reagent but no cells, were also determined. To analyze protection from glucose/glucose oxidase toxicity, confluent cell layers were incubated with HF medium containing glucose oxidase (0.019 units/ml) along with test compounds, as indicated, for 18 hr in the tissue culture incubator. Fresh HF medium was then added and cell viability assessed using the XTT reagent as described above. For both these models, concentrations of toxic agents were selected that were reproducibly completely lethal. Cytotoxicity assessments were routinely confirmed by visual inspection of the cell layers prior to addition of the XTT reagent.

[2] = SOD activity, xanthine/xanthine oxidase with cytochrome C as acceptor (Example 2); type: biochemical; conditions: for SOD: relative to C7 (C7 = 100)
Procedure, shortened: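 Superoxide was generated by 120 µM xanthine and 0.2 U/ml xanthine oxidase in 50 mM sodium phosphate pH 7.8 at 27 °C, with salen manganese compounds at ≥4 concentrations in duplicate.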

Rats = assay: Rat model for myocardial infarct (permanent coronary occlusion); type: in vivo; conditions: intravenous bolus immediately prior to surgery, 48 hr recovery
Method: Rats were subjected to permanent regional cardiac ischemia by surgical occlusion of the left coronary artery. […] Sham-operated rats were subjected to surgery but the suture was not tied on the coronary artery. After a 48 hr recovery period, cardiac functional parameters were measured with a Millar transducing catheter implanted into the left ventricle.

dopaminergic neurons = assay: MPTP mouse model of Parkinson's disease (mazindol binding); type: in vivo
Method: Neuronal damage was induced in mice by injection with MPTP as described in Example 1. Where indicated, mice were also treated with intraperitoneal injections of C40 at 0.02 or 0.2 mg/kg. The integrity of the nigrostriatal dopaminergic neurons was assessed based upon ^3H-Mazindol binding to striatal membranes harvested from the brains of these mice about 1 week after MPTP administration.
The experiment was performed over a 7 day period. […] The animals were sacrificed after 7 days.

MRL/lpr mice = assay: Lifespan of autoimmune MRL/lpr mice; type: in vivo; conditions: 1 mg/mouse intraperitoneally three times per week
Text: MRL/lpr mice develop autoantibodies and numerous autoimmune associated pathologies and die prematurely (mean lifespan ˜150 days). They are considered a mouse model for autoimmune disorders such as lupus. […] Control mice received vehicle injections only or were left untreated.
MRL/lpr mice develop autoantibodies and numerous autoimmune associated pathologies and die prematurely (mean lifespan˜150 days). They are considered a mouse model for autoimmune disorders such as lupus. […] Control mice received vehicle injections only or were left untreated.

Rat brain slices = assay: Rat brain slice ischemia/reoxygenation EPSP system; type: cell-based; conditions: 50 μM C7
Method: A widely used assay to determine the therapeutic potential of molecules in brain ischemia (stroke) consists of evaluating their ability to prevent irreversible damage induced by an anoxic episode in brain slices maintained under physiological conditions. Rat brain slices were maintained at 35° C. in an interface chamber in an artificial cerebrospinal fluid containing: 124 mM NaCl, 3 mM KCl, 1.25 mM KH2PO4, 3 mM CaCl, 1 mM MgCl2, 26 mM NaHCO3, 10 mM D-glucose, and 2 mM L-ascorbate, continuously gassed with a mixture of O2:CO2 (95:5). The atmosphere of the chamber was also continuously gased with the mixture of O2:CO2 (95:5), except during the-anoxic episode when it was replaced by N2. Axons were electrically stimulated and the evoked excitatory post-synaptic potentials (EPSPs) were recorded using microelectrodes.
The extent of permanent damage can be quantified by measuring both the amplitude (in mV) and the initial slope (in mV/msec) of the EPSP.
After 5 minutes of baseline recording, O2 was replaced by N2 for an average of 5 minutes. O2 was then reintroduced and recording was continued for another 50 minutes. […] In contrast, recovery in untreated brain slices was only about 40% of pre-ischemia levels.
As an additional assessment of efficacy, the percentage of viable slices following repeated ischemic episodes was evaluated. […]

SJL female mice = assay: Experimental autoimmune encephalomyelitis (EAE); type: in vivo, mouse
Text: EAE is an animal model of multiple sclerosis.
Mice in both groups were immunized with an encephalitogenic PLP peptide in complete Freund's adjuvant subcutaneously, followed by Petrussis Toxin (IV). Petrussis toxin was repeated on day 3 post immunization.

COc1cc(OC)c2c(c1)[O][Mn]([O]C(C)=O)[O]c1cc(OC)cc(OC)c1C=NCCN=C2 [Compound C35]
Cell viability, absorbance at 490 nm uncorrected for blank ([1]; 2.5 μM, t-BHP 0.5 mM): 0.27 ± 0.01
Cell viability, absorbance at 490 nm uncorrected for blank ([1]; 5 μM, t-BHP 0.5 mM): 0.27 ± 0.01
Cell viability, absorbance at 490 nm uncorrected for blank ([1]; 10 μM, t-BHP 0.5 mM): 0.29 ± 0.03
Cell viability, absorbance at 490 nm uncorrected for blank ([1]; 20 μM, t-BHP 0.5 mM): 1.40 ± 0.05
Cell viability, absorbance at 490 nm uncorrected for blank ([1]; 40 μM, t-BHP 0.5 mM): 1.52 ± 0.07
toxicity of compound alone ([1]; 80 μM, without t-BHP): equivalent toxicity with or without t-BHP
Cell viability, absorbance at 490 nm uncorrected for blank ([1]; 80 μM, t-BHP 0.5 mM): 0.57 ± 0.01
concentration at which protection was observed ([1]; t-BHP 0.5 mM): ≥ 20 µM
SOD [2]: 27

COc1cccc2c1[O][Mn]([O]C(C)=O)[O]c1c(cccc1OC)C=NCCN=C2 [Compound C32]
Cell viability, absorbance at 490 nm uncorrected for blank ([1]; 2.5 μM, t-BHP 0.5 mM): 0.29 ± 0.01
Cell viability, absorbance at 490 nm uncorrected for blank ([1]; 5 μM, t-BHP 0.5 mM): 0.28 ± 0.01
Cell viability, absorbance at 490 nm uncorrected for blank ([1]; 10 μM, t-BHP 0.5 mM): 1.35 ± 0.05
Cell viability, absorbance at 490 nm uncorrected for blank ([1]; 20 μM, t-BHP 0.5 mM): 1.43 ± 0.05
Cell viability, absorbance at 490 nm uncorrected for blank ([1]; 40 μM, t-BHP 0.5 mM): 1.48 ± 0.06
Cell viability, absorbance at 490 nm uncorrected for blank ([1]; 80 μM, t-BHP 0.5 mM): 1.40 ± 0.07
SOD [2]: 96

COc1cccc2c1[O][Mn]([Cl])[O]c1c(cccc1OC)C=NCCN=C2 [Compound C40]
protection, left ventricular diastolic pressure (Rats): protection
SOD [2]: 96
protection of dopaminergic neurons (3H-Mazindol binding to striatal membranes) (dopaminergic neurons; C40 0.02 or 0.2 mg/kg intraperitoneal): protects dopaminergic neurons

[Cl][Mn]1[O]c2ccccc2C=NCCN=Cc2ccccc2[O]1 [Compound C7]
Cell viability, absorbance at 490 nm uncorrected for blank ([1]; 2.5 μM, t-BHP 0.5 mM): 0.28 ± 0.01
Cell viability, absorbance at 490 nm uncorrected for blank ([1]; 5 μM, t-BHP 0.5 mM): 0.68 ± 0.31
Cell viability, absorbance at 490 nm uncorrected for blank ([1]; 10 μM, t-BHP 0.5 mM): 1.45 ± 0.05
Cell viability, absorbance at 490 nm uncorrected for blank ([1]; 20 μM, t-BHP 0.5 mM): 1.44 ± 0.05
Cell viability, absorbance at 490 nm uncorrected for blank ([1]; 40 μM, t-BHP 0.5 mM): 1.42 ± 0.03
synergistic toxicity with t-BHP ([1]; 80 μM): possible synergistic toxicity
Cell viability, absorbance at 490 nm uncorrected for blank ([1]; 80 μM, t-BHP 0.5 mM): 0.77 ± 0.41
lifespan (MRL/lpr mice): prolongs the life
protection, left ventricular diastolic pressure (Rats): protection
SOD activity (in words) [2]: catalytic SOD activity
SOD [2]: 100
toxicity, adverse health effects (dopaminergic neurons; 7 day test period): absence of adverse health effects
number of surviving dopaminergic neurons in MPTP-treated mice (dopaminergic neurons; C7 33 mg/kg i.p. pretreatment, MPTP 40 mg/kg days 1 and 2): approximately doubled
number of dopaminergic neurons, C7 alone (dopaminergic neurons; C7 alone): not adversely affected
percentage of viable slices following repeated ischemic episodes (Rat brain slices): 70%
mice developing symptomatic EAE (SJL female mice; fifth week, three weeks after treatment with C7 was stopped): six
mice developing symptomatic EAE (SJL female mice; third week following immunization, C7 1 mg/mouse IP daily, day -2 to 14): one of 10
